From US20150150879A2, “Compositions for Treatment of Cystic Fibrosis and Other Chronic Diseases” (Vertex Pharmaceuticals Incorporated, priority 2010, published 2015)

Target: T1, ΔF508-CFTR (Homo sapiens, UniProt P13569, DEL508-508)
T1 construct: expressed in transfected cells
Assay: Membrane potential optical (FRET/VIPR) assay, identification of potentiator compounds, NIH3T3 cells stably expressing ΔF508-CFTR
Assay type: cell-based
Conditions: Table II.A-4, assay not given; for EC50: modulators of ATP binding cassette transporters
Source text: I) Membrane Potential Optical Methods for Assaying ΔF508-CFTR Modulation Properties of Compounds
The optical membrane potential assay utilized voltage-sensitive FRET sensors described by Gonzalez and Tsien (See, Gonzalez, J. E. and R. Y. Tsien (1995) “Voltage sensing by fluorescence resonance energy transfer in single cells” Biophys J 69(4): 1272-80, and Gonzalez, J. E. and R. Y. Tsien (1997) “Improved indicators of cell membrane potential that use fluorescence resonance energy transfer” Chem Biol 4(4): 269-77) in combination with instrumentation for measuring fluorescence changes such as the Voltage/Ion Probe Reader (VIPR) (See, Gonzalez, J. E., K. Oades, et al. (1999) “Cell-based assays and instrumentation for screening ion-channel targets” Drug Discov Today 4(9): 431-439).
These voltage sensitive assays are based on the change in fluorescence resonant energy transfer (FRET) between the membrane-soluble, voltage-sensitive dye, DiSBAC2(3), and a fluorescent phospholipid, CC2-DMPE, which is attached to the outer leaflet of the plasma membrane and acts as a FRET donor. Changes in membrane potential (Vm) cause the negatively charged DiSBAC2(3) to redistribute across the plasma membrane and the amount of energy transfer from CC2-DMPE changes accordingly. The changes in fluorescence emission were monitored using VIPR™ II, which is an integrated liquid handler and fluorescent detector designed to conduct cell-based screens in 96- or 384-well microtiter plates.
Identification of Potentiator Compounds
To identify potentiators of ΔF508-CFTR, a double-addition HTS assay format was developed. During the first addition, a Cl^−-free medium with or without test compound was added to each well. After 22 sec, a second addition of Cl^−-free medium containing 2-10 μM forskolin was added to activate ΔF508-CFTR. The extracellular Cl^− concentration following both additions was 28 mM, which promoted Cl^− efflux in response to ΔF508-CFTR activation and the resulting membrane depolarization was optically monitored using the FRET-based voltage-sensor dyes. Solutions […]

T1 sequence (P13569 with tags, fused parts or gaps DEL508-508): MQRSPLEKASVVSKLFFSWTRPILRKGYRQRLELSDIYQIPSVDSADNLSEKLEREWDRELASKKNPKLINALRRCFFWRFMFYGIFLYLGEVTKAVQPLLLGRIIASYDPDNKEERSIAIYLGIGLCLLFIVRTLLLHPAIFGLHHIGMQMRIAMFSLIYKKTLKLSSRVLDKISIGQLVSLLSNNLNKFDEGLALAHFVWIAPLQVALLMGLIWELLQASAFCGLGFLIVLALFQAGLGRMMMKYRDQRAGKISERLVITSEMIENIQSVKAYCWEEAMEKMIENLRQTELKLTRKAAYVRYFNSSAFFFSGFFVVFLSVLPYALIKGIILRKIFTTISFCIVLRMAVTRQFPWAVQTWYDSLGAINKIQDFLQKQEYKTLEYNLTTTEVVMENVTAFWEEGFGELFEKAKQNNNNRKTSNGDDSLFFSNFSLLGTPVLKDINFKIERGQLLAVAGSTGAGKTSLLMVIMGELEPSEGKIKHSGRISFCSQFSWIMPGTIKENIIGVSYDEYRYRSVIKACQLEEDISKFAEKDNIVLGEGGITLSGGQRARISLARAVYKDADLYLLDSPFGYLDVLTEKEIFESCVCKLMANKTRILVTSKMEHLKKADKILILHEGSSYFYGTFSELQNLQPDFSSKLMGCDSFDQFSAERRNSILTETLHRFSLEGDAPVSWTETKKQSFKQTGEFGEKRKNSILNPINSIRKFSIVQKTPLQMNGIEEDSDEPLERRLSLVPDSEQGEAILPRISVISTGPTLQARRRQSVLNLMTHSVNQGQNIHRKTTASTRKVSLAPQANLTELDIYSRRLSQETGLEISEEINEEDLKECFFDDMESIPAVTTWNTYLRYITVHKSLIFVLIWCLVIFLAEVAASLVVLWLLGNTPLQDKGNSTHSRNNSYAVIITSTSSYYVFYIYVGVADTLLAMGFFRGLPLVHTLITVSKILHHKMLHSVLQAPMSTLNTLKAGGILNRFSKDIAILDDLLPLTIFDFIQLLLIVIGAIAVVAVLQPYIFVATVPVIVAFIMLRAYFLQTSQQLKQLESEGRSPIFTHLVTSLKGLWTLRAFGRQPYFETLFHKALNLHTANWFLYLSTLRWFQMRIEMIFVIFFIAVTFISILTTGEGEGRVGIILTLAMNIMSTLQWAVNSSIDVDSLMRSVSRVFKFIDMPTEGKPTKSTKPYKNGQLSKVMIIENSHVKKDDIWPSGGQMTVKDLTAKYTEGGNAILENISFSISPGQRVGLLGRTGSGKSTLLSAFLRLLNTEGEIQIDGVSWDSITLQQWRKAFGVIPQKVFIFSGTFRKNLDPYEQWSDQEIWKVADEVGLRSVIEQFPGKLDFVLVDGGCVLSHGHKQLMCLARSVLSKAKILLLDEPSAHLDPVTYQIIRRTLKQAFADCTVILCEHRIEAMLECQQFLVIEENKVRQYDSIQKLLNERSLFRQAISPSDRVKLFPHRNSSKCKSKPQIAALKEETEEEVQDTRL

EC50 [µM] | % Activity (relative efficacy) (relative efficacy) | SMILES
< 10 | ++ (“++” means between 25% to 100%) | CC(C)(C)c1cc(C(C)(C)C)c(NC(=O)c2c[nH]c3cccc(O)c3c2=O)cc1O [Compound 464, 5-hydroxy-N-(5-hydroxy-2,4-ditert-butyl-phenyl)-4-oxo-1H-quinoline-3-carboxamide]
< 10 |  | Cc1cc2nc(NC(=O)c3c[nH]c4ccccc4c3=O)[nH]c2cc1C [compound 422, N-(5,6-dimethyl-3H-benzoimidazol-2-yl)-4-oxo-1H-quinoline-3-carboxamide]
